The supplement of paper PMC5908809

Key:
Assay in all cases: relative IC50 (inflection point of fitted viability curve, relative to fitted max inhibition); higher = less sensitive
Conditions in all cases: 72 h
NK-92 (IL-2 2.5 ng/mL) = test system: NK-92 (IL-2 2.5 ng/mL)
Procedure: (§1)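 Drug sensitivity and resistance testing: 5 concentrations over a 10,000-fold range, 72 h at 37 °C, viability by CellTiter-Glo normalised to DMSO and benzethonium chloride controls. IC50 is the inflection point of a logistic fit (min fixed at 0, max fitted), so it is relative to the fitted maximal inhibition. Kept only where fitted max inhibition is at least 50%.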

DERL-7 (IL-2 2.5 ng/mL) = test system: DERL-7 (IL-2 2.5 ng/mL)
Procedure: as §1

NKL (IL-2 2.5 ng/mL) = test system: NKL (IL-2 2.5 ng/mL)
Procedure: as §1

KAI3 (IL-2 2.5 ng/mL) = test system: KAI3 (IL-2 2.5 ng/mL)
Procedure: as §1

KHYG-1 (IL-2 2.5 ng/mL) = test system: KHYG-1 (IL-2 2.5 ng/mL)
Procedure: as §1

| Compound | relative IC50 (NK-92 (IL-2 2.5 ng/mL)) | relative IC50 (DERL-7 (IL-2 2.5 ng/mL)) | relative IC50 (NKL (IL-2 2.5 ng/mL)) | relative IC50 (KAI3 (IL-2 2.5 ng/mL)) | relative IC50 (KHYG-1 (IL-2 2.5 ng/mL)) |
| --- | --- | --- | --- | --- | --- |
| O=c1sn(-c2cccc3ccccc23)c(=O)n1Cc1ccccc1 [Tideglusib] | > 3 µM | – | – | – | – |
| NC1(c2ccc(-c3nc4ccn5c(=O)[nH]nc5c4cc3-c3ccccc3)cc2)CCC1 [MK-2206] | – | 0.103 µM | – | – | – |
| Nc1nc(OCc2cc(Br)cs2)c2[nH]cnc2n1 [Lomeguatrib] | – | – | 1.9 µM | – | – |
| C=C(c1ccc(C(=O)O)cc1)c1cc2c(cc1C)C(C)(C)CCC2(C)C [Bexarotene] | – | – | 0.208 µM | – | – |
| NC(=O)NO [Hydroxyurea] | – | – | – | 2.63 µM | – |
| O=C(Nc1cc(Cl)cc2c1[nH]c1cnccc12)c1cccnc1 [PS-1145] | – | – | – | 1.65 µM | – |
| CC(C)NC[C@@H](C(=O)N1CCN(c2ncnc3c2[C@H](C)C[C@H]3O)CC1)c1ccc(Cl)cc1 [GDC-0068] | – | 1.03 µM | – | – | – |
| CN1CCN(c2nc(C3=C(c4c[nH]c5ccccc45)C(=O)NC3=O)c3ccccc3n2)CC1 [Sotrastaurin] | 1.69 µM | 1.08 µM | 0.499 µM | 1.62 µM | 1.8 µM |
| C[C@H](Nc1ncnc2nc[nH]c12)c1cc2cccc(Cl)c2c(=O)n1-c1ccccc1 [Duvelisib] | – | 0.0445 µM | – | – | – |
| CCn1c(C(=O)N(C2CC2)C2CC2)cc2c3c(ncn3C)c(Nc3cc(C)n(C)n3)nc21 | 1.98 µM | 1.63 µM | 0.797 µM | 0.18 µM | 1.82 µM |
